Results taken from US11873287B2, “Piperidine-2,6-dione derivatives and ulcerative colitis treating” (TIANJIN HEMAY PHARMACEUTICAL SCI-TECH CO., LTD, priority 2016, dated 2024).

Key:
[1] = tested on: DSS-Induced inflammatory Bowel Disease Models in Mice; experiment: DSS-induced inflammatory bowel disease model in mice (Biological Example 5, 1.3% DSS); assay type: in vivo, C57BL/6 mice; conditions: 30 mg/Kg i.g. Q.D, 1.3% DSS days 0-5; for inhibition in vivo at 30 mg/kg: Mus musculus, po, read-out: Inhibitory Rate of Colonic Reduction
Experimental: 40 healthy female C57BL/6 mice having weight of 16-19 g were randomly divided into 4 groups in accordance with weight. There were 10 mice in each group (see Table 6 below). The first day of the experiment was recorded as Day 0. The administration regimen and induction regimen were detailed in Table 6. The change in weight of experimental animals was recorded every day. […] Samples of animal colonic tissues were obtained to measure the length. One-way ANOVA analysis of mice weights was performed by SPSS22. Statistical analyses between groups were performed. Mann-Whitney U non-parametric test was performed on the length of colon.
The experimental method used in the present biological example is identical to those in Biological Example 3.
One-way ANOVA analysis of mice body weights and colonic weights per length was performed by SPSS22. Statistical analyses between groups were performed.
Calculation Formula of Inhibitory Rate of Colonic Reduction: (Length of Colon in Administration Group−Length of Colon in Model Group)/(Length of Colon in Blank Group−Length of Colon in Model Group)

[2] = tested on: ICR mice; experiment: Acute toxicity experiment of single oral administration in mice; assay type: in vivo; conditions: 1000 mg/Kg single oral dose
Method in brief: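 Fasted ICR mice (19–21 g, 3 male and 3 female per group) received a single oral dose of 1000 mg/Kg, given first to one of each sex, then to the remaining four. Acute signs were scored over the first 15 min, then state, deaths and daily body weight over 7 days.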

SMILES	Length (cm, Mean ± SD) of colon [1]	inhibition in vivo at 30 mg/kg [1]	Daily Body Weight of Tested Female Mice (Mean ± SD) ([2]; Day 1)	Daily Body Weight of Tested Male Mice (Mean ± SD) ([2]; Day 1)	Daily Body Weight of Tested Female Mice (Mean ± SD) ([2]; Day 2)	Daily Body Weight of Tested Male Mice (Mean ± SD) ([2]; Day 2)	Daily Body Weight of Tested Female Mice (Mean ± SD) ([2]; Day 3)	Daily Body Weight of Tested Male Mice (Mean ± SD) ([2]; Day 3)	Daily Body Weight of Tested Female Mice (Mean ± SD) ([2]; Day 4)	Daily Body Weight of Tested Male Mice (Mean ± SD) ([2]; Day 4)	Daily Body Weight of Tested Female Mice (Mean ± SD) ([2]; Day 5)	Daily Body Weight of Tested Male Mice (Mean ± SD) ([2]; Day 5)	Daily Body Weight of Tested Female Mice (Mean ± SD) ([2]; Day 6)	Daily Body Weight of Tested Male Mice (Mean ± SD) ([2]; Day 6)	Daily Body Weight of Tested Female Mice (Mean ± SD) ([2]; Day 7)	Daily Body Weight of Tested Male Mice (Mean ± SD) ([2]; Day 7)	Summary of toxic response of tested animals in 7 Days ([2]; Female)	Summary of toxic response of tested animals in 7 Days ([2]; Male)
COCCN1C(=O)CCC(N2C(=O)c3cccc(O)c3C2=O)C1=O (centres unmarked) [Example 23, 4-hydroxy-2-(1-(2-methoxyethyl)-2,6-dioxopiperidin-3-yl)isoindolin-1,3-dione]	6.9 ± 0.5 cm	100%	19.1 ± 0.6 g	19.4 ± 0.8 g	22.4 ± 0.4 g	24.6 ± 1.2 g	23.0 ± 0.1 g	24.5 ± 0.6 g	23.0 ± 0.1 g	24.5 ± 0.6 g	24.6 ± 0.4 g	25.4 ± 1.2 g	24.8 ± 0.7 g	28.1 ± 0.8 g	24.6 ± 0.4 g	29.0 ± 0.8 g	Abnormality was not observed in 7 days of the test	Abnormality was not observed in 7 days of the test
COCCN1C(=O)CCC(N2C(=O)c3cccc(C)c3C2=O)C1=O (centres unmarked) [Example 24, 4-methyl-2-(1-(2-methoxyethyl)-2,6-dioxopiperidin-3-yl)-isoindolin-1,3-dione]	6.7 ± 0.6 cm	81.8%	18.4 ± 0.7 g	17.7 ± 0.2 g	22.4 ± 1.0 g	22.3 ± 0.7 g	23.4 ± 1.0 g	24.5 ± 1.0 g	23.6 ± 0.9 g	25.2 ± 1.0 g	24.3 ± 0.6 g	27.2 ± 1.3 g	24.7 ± 0.6 g	28.1 ± 2.0 g	24.8 ± 1.5 g	28.9 ± 1.9 g	–	–
COCCCN1C(=O)CCC(N2C(=O)c3cccc(F)c3C2=O)C1=O (centres unmarked) [Example 17, 4-fluoro-2-(1-(3-methoxypropyl)-2,6-dioxopiperidin-3-yl)isoindolin-1,3-dione]	7.0 ± 0.4 cm	109%	18.6 ± 1.0 g	19.0 ± 0.7 g	21.9 ± 0.4 g	24.0 ± 0.7 g	22.7 ± 0.4 g	24.6 ± 0.8 g	22.7 ± 0.4 g	24.6 ± 0.8 g	23.0 ± 0.4 g	26.1 ± 0.7 g	23.1 ± 1.0 g	28.1 ± 0.6 g	22.7 ± 1.2 g	29.3 ± 1.0 g	Motor dysfunction in one animal was observed 10 minutes after	Motor dysfunction in two animals was observed 30 minutes after
C[S+]([O-])CCN1C(=O)CCC(N2C(=O)c3cccc(N)c3C2=O)C1=O (centres unmarked) [Example 12, 4-amino-2-(1-(2-methylsulfinylethyl)-2,6-dioxopiperidin-3-yl)isoindolin-1,3-dione]	7.0 ± 0.5 cm	109%	18.7 ± 0.7 g	18.5 ± 0.2 g	21.8 ± 0.6 g	24.3 ± 0.6 g	22.6 ± 0.1 g	24.9 ± 0.1 g	22.6 ± 0.0 g	24.9 ± 0.1 g	23.7 ± 0.6 g	26.1 ± 0.7 g	25.3 ± 1.0 g	27.8 ± 0.7 g	25.7 ± 1.6 g	28.5 ± 0.7 g	Abnormality was not observed in 7 days of the test	Abnormality was not observed in 7 days of the test
CCOCCN1C(=O)CCC(N2C(=O)c3cccc(F)c3C2=O)C1=O (centres unmarked) [Example 20, 4-fluoro-2-(1-(2-ethoxyethyl)-2,6-dioxopiperidin-3-yl)isoindolin-1,3-dione]	6.9 ± 0.6 cm	100%	18.7 ± 0.4 g	18.8 ± 1.0 g	21.6 ± 1.0 g	24.0 ± 1.1 g	22.1 ± 1.0 g	25.3 ± 1.2 g	22.1 ± 1.0 g	25.3 ± 1.2 g	23.0 ± 1.4 g	26.7 ± 1.2 g	23.3 ± 0.2 g	29.0 ± 1.1 g	23.7 ± 0.8 g	29.3 ± 0.7 g	Decrease of activity was observed in two animals in 10 minutes	Decrease of activity was observed in one animal 11 minutes after
COCCCCN1C(=O)CCC(N2C(=O)c3cccc(N)c3C2=O)C1=O (centres unmarked) [Example 22, 4-amino-2-(1-(4-methoxybutyl)-2,6-dioxopiperidin-3-yl)isoindolin-1,3-dione]	6.9 ± 0.4 cm	100%	18.5 ± 0.6 g	17.1 ± 0.3 g	21.8 ± 0.3 g	22.9 ± 0.8 g	22.9 ± 0.4 g	23.5 ± 0.9 g	24.0 ± 1.0 g	25.2 ± 0.5 g	25.0 ± 0.4 g	27.2 ± 1.9 g	25.3 ± 0.6 g	27.1 ± 1.8 g	25.6 ± 0.2 g	27.4 ± 1.9 g	–	–
CS(=O)(=O)CCN1C(=O)CCC(N2C(=O)c3cccc(N)c3C2=O)C1=O (centres unmarked) [Example 13, 4-amino-2-(1-(2-methylsulfonylethyl)-2,6-dioxopiperidin-3-yl)isoindolin-1,3-dione]	6.9 ± 0.4 cm	100%	18.8 ± 1.1 g	19.6 ± 0.7 g	21.3 ± 0.3 g	23.1 ± 0.6 g	21.8 ± 0.4 g	24.4 ± 0.9 g	21.8 ± 0.4 g	24.4 ± 0.9 g	23.0 ± 0.5 g	26.5 ± 0.5 g	23.2 ± 0.9 g	28.3 ± 1.3 g	23.6 ± 0.9 g	28.4 ± 0.8 g	Abnormality was not observed in 7 days of the test	Abnormality was not observed in 7 days of the test
